Target: T1, recombinant E. coli purine nucleoside phosphorylase (PNP) (Escherichia coli, UniProt P0ABP8)
T1 construct: gene deoD
T1 sequence (P0ABP8 2-239): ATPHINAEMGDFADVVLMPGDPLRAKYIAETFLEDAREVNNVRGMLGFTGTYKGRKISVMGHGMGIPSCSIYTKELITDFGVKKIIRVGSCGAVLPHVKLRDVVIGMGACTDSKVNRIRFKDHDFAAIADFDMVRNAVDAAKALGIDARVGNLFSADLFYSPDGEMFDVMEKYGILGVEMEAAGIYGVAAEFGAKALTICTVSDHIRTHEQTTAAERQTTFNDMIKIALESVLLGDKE
Test: inhibition of PNP nucleoside synthesis
Type: biochemical
Conditions: not a substrate; moderate inhibitor of the synthetic reaction; no value

SMILES	inhibition of PNP nucleoside synthesis
Nc1nc(=O)n2ccn([C@@H]3O[C@H](CO)[C@@H](O)[C@@H]3O)c2n1 [4b, arabinoside 4b]	nucleosides 4b and 5b are not substrates for E. coli PNP and moderately inhibit
O=c1[nH]cnc2c1cnn2[C@@H]1O[C@H](CO)[C@@H](O)[C@@H]1O [5b, arabinoside 5b]	nucleosides 4b and 5b are not substrates for E. coli PNP and moderately inhibit

Source: PMC4142866, “The chemoenzymatic synthesis of clofarabine and related 2′-deoxyfluoroarabinosyl nucleosides: the electronic and stereochemical factors determining substrate recognition by E. coli nucleoside phosphorylases” (Beilstein Journal of Organic Chemistry, 2014)
